ChEMBL document CHEMBL4483862, “Open-source discovery of chemical leads for next-generation chemoprotective antimalarials” (2018)

Tested on: Plasmodium berghei
Assay: Luciferase/luciferin-expressing antifolate-resistant parasites were used to infect a culture of HepG2 cells that were pre-incubated with compounds. Infected hepatocytes emit light due to the luciferase reaction. Assay results are presented as the percent inhibition of light emission compared to control. […]
Assay type: functional
Conditions: sporozoite; for IC90: read-out: LUCIFERASE INFECTION ASSAY - IC90

| Structure (SMILES) | IC90 [µM] | other results |
| --- | --- | --- |
| Cc1ccc(-c2cnn3c(N4CCOCC4)cc(C)nc23)cc1 | > 10.7 | IC50 (PBLUC_HILL_SLOPE 2.15, PBLUC_R_SQUARED 0.469, read-out: LUCIFERASE INFECTION ASSAY - IC50): 5.44 µM |
| Clc1cccc(CNc2nnnn2-c2ccccc2)c1 | > 10 | IC50 (PBLUC_HILL_SLOPE 2.12, PBLUC_R_SQUARED 0.274, read-out: LUCIFERASE INFECTION ASSAY - IC50): 8.09 µM |
| CN1N=C2c3ccccc3CCC2C1c1ccc(Cl)cc1 (stereo unspecified) | 4 | IC50 (PBLUC_HILL_SLOPE 2.13, PBLUC_R_SQUARED 0.455, read-out: LUCIFERASE INFECTION ASSAY - IC50): 1.42 µM |
| CC1CCN(S(=O)(=O)c2ccc(C(=O)Nc3ncccc3O)cc2)CC1 | > 10 | IC50 (PBLUC_HILL_SLOPE 2.15, PBLUC_R_SQUARED 0.503, read-out: LUCIFERASE INFECTION ASSAY - IC50): 4.81 µM |
| O=C(NC1CCN(c2nccc(C(F)(F)F)n2)CC1)c1cccs1 | 4.85 | IC50 (PBLUC_HILL_SLOPE 2.13, PBLUC_R_SQUARED 0.731, read-out: LUCIFERASE INFECTION ASSAY - IC50): 1.72 µM |
| Cc1cccnc1NC(=O)c1ccc(Cl)c(S(=O)(=O)N(Cc2ccccc2)c2ccccc2)c1 | > 10 | IC50 (PBLUC_HILL_SLOPE 2.12, PBLUC_R_SQUARED 0.451, read-out: LUCIFERASE INFECTION ASSAY - IC50): 5.79 µM |
| N#C/C(=C\c1cccc([N+](=O)[O-])c1)c1nn(-c2ccccc2)c(-n2cccc2)c1C#N | > 8.12 | IC50 (PBLUC_HILL_SLOPE 2.16, PBLUC_R_SQUARED 0.645, read-out: LUCIFERASE INFECTION ASSAY - IC50): 5.63 µM |
| COc1cccc(/C=C/C(=O)NC2CCCc3ccccc32)c1OC(F)F (stereo unspecified) | > 10 | IC50 (PBLUC_HILL_SLOPE 2.15, PBLUC_R_SQUARED 0.14, read-out: LUCIFERASE INFECTION ASSAY - IC50): > 10 µM |
| CCOc1cc2ccccc2cc1C(=O)NOCc1ccccc1 | > 10 | IC50 (PBLUC_HILL_SLOPE 2.14, PBLUC_R_SQUARED 0.146, read-out: LUCIFERASE INFECTION ASSAY - IC50): > 10 µM |
| CCC(=O)Nc1nc2ccc(NC(=O)c3cc(OC)cc(OC)c3)cc2s1 | > 8.56 | IC50 (PBLUC_HILL_SLOPE 2.13, PBLUC_R_SQUARED 0.461, read-out: LUCIFERASE INFECTION ASSAY - IC50): 5.13 µM |
| CN1CCN(c2ccc(-c3cn4c(-c5cccc(N(C)C)c5)cnc4cn3)cn2)CC1 | > 7.98 | IC50 (PBLUC_HILL_SLOPE 2.11, PBLUC_R_SQUARED 0.385, read-out: LUCIFERASE INFECTION ASSAY - IC50): 6.15 µM |
| Cc1ccc(Nc2nnc(SC(C)C(=O)NC(C)c3ccc(F)cc3)s2)cc1 (stereo unspecified) | > 10 | IC50 (PBLUC_HILL_SLOPE 2.15, PBLUC_R_SQUARED 0.495, read-out: LUCIFERASE INFECTION ASSAY - IC50): 4.9 µM |
| Cc1csc(C(C#N)C(=O)CSc2nnc(Nc3ccc(OC(F)(F)F)cc3)s2)n1 (stereo unspecified) | > 10 | IC50 (PBLUC_HILL_SLOPE 2.13, PBLUC_R_SQUARED 0.0111, read-out: LUCIFERASE INFECTION ASSAY - IC50): 7.36 µM |
| Cc1cc(Cl)ccc1OCC(=O)c1c(-c2ccccc2)[nH]c2ccccc12 | > 10 | IC50 (PBLUC_HILL_SLOPE 2.14, 2.22, PBLUC_R_SQUARED 0.753, 0.563, read-out: LUCIFERASE INFECTION ASSAY - IC50): 6.03 µM |
| O=C(COC(=O)c1cn(-c2ccccc2)nc1-c1ccccc1)Nc1ccc(Cl)c(S(=O)(=O)N2CCOCC2)c1 | > 10 | IC50 (PBLUC_HILL_SLOPE 2.11, PBLUC_R_SQUARED 0.445, read-out: LUCIFERASE INFECTION ASSAY - IC50): 5.37 µM |
| O=c1nc(Nc2ccc(SC(F)(F)F)cc2)c2ccccc2o1 | 0.441 | IC50 (PBLUC_HILL_SLOPE 2.14, PBLUC_R_SQUARED 0.975, read-out: LUCIFERASE INFECTION ASSAY - IC50): 0.158 µM |
| O=C(Nc1cccc2c[nH]nc12)c1cnc(OCC(F)(F)F)c(Cl)c1 | 5.53 | IC50 (PBLUC_HILL_SLOPE 2.15, PBLUC_R_SQUARED 0.641, read-out: LUCIFERASE INFECTION ASSAY - IC50): 1.99 µM |

| Structure (SMILES) | IC90 [µM] | other results |
| --- | --- | --- |
| CSc1ncc(C(=O)OCc2cc(F)cc3c2OCOC3)n1-c1ccc(F)cc1 | > 10 | IC50 (PBLUC_HILL_SLOPE 2.14, PBLUC_R_SQUARED 0.0712, read-out: LUCIFERASE INFECTION ASSAY - IC50): 5.17 µM |
| CN(C)c1nc(N)nc(/C(C#N)=C/c2ccc(N(c3ccccc3)c3ccccc3)cc2)n1 | > 10 | IC50 (PBLUC_HILL_SLOPE 2.12, PBLUC_R_SQUARED 0.0159, read-out: LUCIFERASE INFECTION ASSAY - IC50): 7.93 µM |
| CC(=O)c1c(C)[nH]c(-c2csc(-c3ccc(C)cc3C)n2)c1C | 5.96 | IC50 (PBLUC_HILL_SLOPE 2.12, PBLUC_R_SQUARED 0.351, read-out: LUCIFERASE INFECTION ASSAY - IC50): 2.12 µM |
| COc1cc(CNCc2ccc3c(c2)OCO3)ccc1OCc1ccc(F)cc1 | > 8.35 | IC50 (PBLUC_HILL_SLOPE 2.11, PBLUC_R_SQUARED 0.727, read-out: LUCIFERASE INFECTION ASSAY - IC50): 5.34 µM |
| CCC1(CC)CC(=O)N(CC(O)COc2ccc(C(C)(C)C)cc2)C1=O (stereo unspecified) | > 10 | IC50 (PBLUC_HILL_SLOPE 2.11, PBLUC_R_SQUARED 0.442, read-out: LUCIFERASE INFECTION ASSAY - IC50): 5.07 µM |
| C=CCNC(=S)N1CCc2sccc2C1c1ccc(Cl)cc1 (stereo unspecified) | > 9.46 | IC50 (PBLUC_HILL_SLOPE 2.11, PBLUC_R_SQUARED 0.465, read-out: LUCIFERASE INFECTION ASSAY - IC50): 4.12 µM |
| COc1ccc(CCNC(=O)c2ccccc2NC(=O)c2cc(OC)c(OC)c(OC)c2)cc1OC | > 6.67 | IC50 (PBLUC_HILL_SLOPE 2.16, PBLUC_R_SQUARED 0.652, read-out: LUCIFERASE INFECTION ASSAY - IC50): 3.54 µM |
| COc1ccc(-c2cnc3cnc(-c4cccnc4)cn23)cc1 | 4.75 | IC50 (PBLUC_HILL_SLOPE 2.13, PBLUC_R_SQUARED 0.733, read-out: LUCIFERASE INFECTION ASSAY - IC50): 1.7 µM |
| CC(C)c1ccc(-c2nnc(NC(=O)CNC(=O)c3cccc(S(=O)(=O)N(C)C)c3)s2)cc1 | > 10 | IC50 (PBLUC_HILL_SLOPE 2.11, PBLUC_R_SQUARED 0.538, read-out: LUCIFERASE INFECTION ASSAY - IC50): 5.39 µM |
| O=C(COc1ccc2[nH]c3ccccc3c(=O)c2c1)N1CCN(c2ccc(F)cc2)CC1 | 7.49 | IC50 (PBLUC_HILL_SLOPE 2.14, PBLUC_R_SQUARED 0.725, read-out: LUCIFERASE INFECTION ASSAY - IC50): 2.68 µM |
| Cc1ccc(N(Cc2ccccc2)S(=O)(=O)c2ccc(S(C)(=O)=O)cc2)cc1 | > 10 | IC50 (PBLUC_HILL_SLOPE 2.12, PBLUC_R_SQUARED 0.413, read-out: LUCIFERASE INFECTION ASSAY - IC50): 5.72 µM |
| CCCc1cc(NCc2ccccn2)n2ncc(-c3ccccc3)c2n1 | > 9.61 | IC50 (PBLUC_HILL_SLOPE 2.13, PBLUC_R_SQUARED 0.117, read-out: LUCIFERASE INFECTION ASSAY - IC50): 5.6 µM |
| CC1CCc2c(sc3nc(Sc4nnnn4-c4ccccc4)nc(N)c23)C1 (stereo unspecified) | > 10 | IC50 (PBLUC_HILL_SLOPE 2.12, PBLUC_R_SQUARED 0.375, read-out: LUCIFERASE INFECTION ASSAY - IC50): 3.69 µM |
| CC(=O)N1CCc2cc(NC(=O)c3cc(C)n(C4CCCCC4)c3C)ccc21 | 0.349 | IC50 (PBLUC_HILL_SLOPE 2.13, PBLUC_R_SQUARED 0.772, read-out: LUCIFERASE INFECTION ASSAY - IC50): 0.125 µM |
| O=C(Nc1ccc(Oc2ccc(OC(F)(F)F)cc2)cc1)C1CC1 | 1.54 | IC50 (PBLUC_HILL_SLOPE 2.12, PBLUC_R_SQUARED 0.759, read-out: LUCIFERASE INFECTION ASSAY - IC50): 0.548 µM |
| O=C(Nc1ccc(N2CCN(c3ncccc3C(F)(F)F)CC2)nc1)c1cccs1 | 0.867 | IC50 (PBLUC_HILL_SLOPE 2.12, PBLUC_R_SQUARED 0.656, read-out: LUCIFERASE INFECTION ASSAY - IC50): 0.307 µM |
